Source: patent US10065967B2, “Compounds that are ERK inhibitors” (Merck Sharp & Dohme Corp., priority 2013, dated 2018)
pIC50: −log10 of the molar value. Where a name gives a salt, the structure may show the parent alone.

Each molecule was assayed against Active Human ERK2 (hERK2) (Homo sapiens (Human), UniProt P28482) (assay: Active Human ERK2 (hERK2) Activity Assay (IMAP-FP)). Conditions: phosphorylated active hERK2 0.5 nM, 30 μM ATP, 10 point titration, read-out: ERK 2 Human average IC50.
Type: biochemical
Procedure: Assays Active Human ERK2 (hERK2) Activity Assay:
Activated ERK2 activity was determined in an IMAP-FP assay (Molecular Devices). Using this assay format, the potency (IC50) of each compound was determined from a 10 point (1:3 serial dilution, 3 μM starting compound concentration) titration curve using the following outlined procedure. […] Following a 15 minute compound & enzyme incubation, each reaction was initiated by the addition of 10 μL kinase buffer containing 2.45 μM ERK2 IMAP substrate peptides (2.25 μM-unlabeled peptide and 200 nM-labeled peptide, and 75 μM ATP. The final reaction in each well of 25 μL consists of 0.5 nM hERK2, 900 nM unlabeled peptide, 80 nM labeled-peptide, and 30 μM ATP. Phosphorylation reactions were allowed to proceed for 60 minutes and were immediately quenched by the addition of 60 μL IMAP detection beads (1:1000 dilutions) in IMAP binding buffer (Molecular Devices) with 24 mM NaCl. Plates were read on EnVision reader after 60 minutes binding equilibration using Fluorescence Polarization protocol (Perkin Elmer).

Sequence of Active Human ERK2 (hERK2) (P28482 whole entry): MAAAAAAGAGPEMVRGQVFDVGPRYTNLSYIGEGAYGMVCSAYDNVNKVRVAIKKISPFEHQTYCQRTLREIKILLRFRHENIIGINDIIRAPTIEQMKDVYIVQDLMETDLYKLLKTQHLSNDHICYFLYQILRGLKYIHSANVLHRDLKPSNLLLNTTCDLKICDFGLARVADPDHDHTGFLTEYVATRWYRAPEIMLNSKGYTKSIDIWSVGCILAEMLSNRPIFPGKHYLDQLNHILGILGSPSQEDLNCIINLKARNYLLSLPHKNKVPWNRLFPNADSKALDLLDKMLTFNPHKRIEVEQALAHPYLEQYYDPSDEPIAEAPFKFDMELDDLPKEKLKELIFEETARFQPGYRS

SMILES	pIC50
Cn1cc(-c2n[nH]c3cc4[nH]c(=O)ccc4cc23)cn1 [Example 4, 3-(1-methyl-1H-pyrazol-4-yl)-1,8-dihydro-7H-pyrazolo[4,3-g]quinolin-7-one]	9.52
O=c1ccc2cc3cn[nH]c3cc2[nH]1 [Example 5, 1,8-dihydro-7H-pyrazolo[4,3-g]quinolin-7-one]	6.64
Cn1cc(-c2n[nH]c3cc4[nH]c(=O)c(Br)cc4cc23)cn1 [Example 6, 6-bromo-3-(1-methyl-1H-pyrazol-4-yl)-1,8-dihydro-7H-pyrazolo[4,3-g]quinolin-7-one trifluoroacetate]	9.52
Cn1cc(-c2n[nH]c3cc4[nH]c(=O)c(Cc5ccccc5)cc4cc23)cn1 [Example 7, 6-benzyl-3-(1-methyl-1H-pyrazol-4-yl)-1,8-dihydro-7H-pyrazolo[4,3-g]quinolin-7-one]	9.52
Cc1cc(-c2n[nH]c3cc4c(cc23)CCCC(=O)N4)ccn1 [Example 9, 3-(2-methylpyridin-4-yl)-5,6,7,9-tetrahydroazepino[3,2-f]indazol-8(1H)-one]	6.60
Cc1cc(-c2n[nH]c3cc4c(cc23)CN([C@H](C)c2ccc(F)cc2)C(=O)N4)ccn1 [Example 10, (R)-6-(1-(4-fluorophenyl)ethyl)-3-(2-methylpyridin-4-yl)-5,6-dihydro-1H-pyrazolo[4,3-g]quinazolin-7(8H)-one]	9.52
Cc1cc(-c2n[nH]c3cc4c(cc23)CCN(Cc2ccc(F)cc2)C(=O)N4O)ccn1 [Example 11, 7-(4-fluorobenzyl)-9-hydroxy-3-(2-methylpyridin-4-yl)-5,6,7,9-tetrahydro-[1,3]diazepino[5,4-f]indazol-8(1H)-one]	6.34
Cc1cc(-c2n[nH]c3cc4c(cc23)CCN([C@H](C)c2ccc(F)cc2)C(=O)N4)ccn1 [Example 12, (R)-7-(1-(4-fluorophenyl)ethyl)-3-(2-methylpyridin-4-yl)-5,6,7,9-tetrahydro-[1,3]diazepino[5,4-f]indazol-8(1H)-one]	7.14
Cc1cc(-c2n[nH]c3cc4c(cc23)CNC(=O)N4)ccn1 [Example 13, 3-(2-methylpyridin-4-yl)-5,6-dihydro-1H-pyrazolo[4,3-g]quinazolin-7(8H)-one]	9.22
Cc1cc(-c2n[nH]c3cc4c(cc23)CN(Cc2ccccc2)C(=O)N4)ccn1 [Example 14, 6-benzyl-3-(2-methylpyridin-4-yl)-5,6-dihydro-1H-pyrazolo[4,3-g]quinazolin-7(8H)-one]	9.30
C[C@H](c1ccccc1)n1c(=O)[nH]c2cc3[nH]nc(-c4ccc5nnn(C)c5c4)c3cc2c1=O [Example 15, (R)-3-(1-methyl-1H-benzo[d][1,2,3]triazol-6-yl)-6-(1-phenylethyl)-1H-pyrazolo[4,3-g]quinazoline-5,7(6H,8H)-dione]	8.77
Cc1cc(-c2n[nH]c3cc4c(cc23)CN(C2CCCOc3ccccc32)C(=O)N4)ccn1 (stereo not shown) [Example 16, 3-(2-methylpyridin-4-yl)-6-(2,3,4,5-tetrahydrobenzo[b]oxepin-5-yl)-5,6-dihydro-1H-pyrazolo[4,3-g]quinazolin-7(8H)-one]	8.32
COC[C@H](c1ccc(F)cc1)N1Cc2cc3c(-c4ccnc(C)c4)n[nH]c3cc2NC1=O [Example 17]	9.15
COc1ccccc1CN1Cc2cc3c(-c4ccnc(C)c4)n[nH]c3cc2NC1=O [Example 18, 6-(2-methoxybenzyl)-3-(2-methylpyridin-4-yl)-5,6-dihydro-1H-pyrazolo[4,3-g]quinazolin-7(8H)-one]	9.10
COc1ccccc1CCN1Cc2cc3c(-c4ccnc(C)c4)n[nH]c3cc2NC1=O [Example 19, 6-(2-methoxyphenethyl)-3-(2-methylpyridin-4-yl)-5,6-dihydro-1H-pyrazolo[4,3-g]quinazolin-7(8H)-one]	8.64
Cc1cc(-c2n[nH]c3cc4c(cc23)CN([C@H](C)c2ccccc2)C(=O)N4)ccn1 [Example 20, (R)-3-(2-methylpyridin-4-yl)-6-(1-phenylethyl)-5,6-dihydro-1H-pyrazolo[4,3-g]quinazolin-7(8H)-one 2,2,2-trifluoroacetate]	9.52
Cc1cc(-c2n[nH]c3cc4c(cc23)CN(Cc2cccc(C)n2)C(=O)N4)ccn1 [Example 21, 6-((6-methylpyridin-2-yl)methyl)-3-(2-methylpyridin-4-yl)-5,6-dihydro-1H-pyrazolo[4,3-g]quinazolin-7(8H)-one]	9.22

SMILES	pIC50
Cc1cc(-c2n[nH]c3cc4c(cc23)CN([C@@H]2CCCCc3ccccc32)C(=O)N4)ccn1 [Example 22, (R)-3-(2-methylpyridin-4-yl)-6-(6,7,8,9-tetrahydro-5H-benzo[7]annulen-5-yl)-5,6-dihydro-1H-pyrazolo[4,3-g]quinazolin-7(8H)-one]	7.62
Cc1cc(-c2n[nH]c3cc4[nH]c(=O)n([C@H](C)c5ccccc5)c(=O)c4cc23)ccn1 [Example 23, (R)-3-(2-methylpyridin-4-yl)-6-(1-phenylethyl)-1H-pyrazolo[4,3-g]quinazoline-5,7(6H,8H)-dione]	8.43
O=c1ccc2cc3c(N4CCOCC4)n[nH]c3cc2[nH]1 [Example 24, 3-morpholino-1H-pyrazolo[4,3-g]quinolin-7(8H)-one]	7.92
O=c1ccc2cc3c(N4CCCCC4)n[nH]c3cc2[nH]1 [Example 25, 3-(piperidin-1-yl)-1H-pyrazolo[4,3-g]quinolin-7(8H)-one]	7.38
C[C@H](c1ccccc1)N1Cc2cc3c(-c4ccc(C#N)nc4)n[nH]c3cc2NC1=O [Example 27, (R)-5-(7-oxo-6-(1-phenylethyl)-5,6,7,8-tetrahydro-1H-pyrazolo[4,3-g]quinazolin-3-yl)picolinonitrile]	8.00
COc1ncc(-c2n[nH]c3cc4c(cc23)CN([C@H](C)c2ccccc2)C(=O)N4)cn1 [Example 28, (R)-3-(2-methoxypyrimidin-5-yl)-6-(1-phenylethyl)-5,6-dihydro-1H-pyrazolo[4,3-g]quinazolin-7(8H)-one formate]	9.22
CC(=O)Nc1n[nH]c2cc3c(cc12)CN([C@H](C)c1ccccc1)C(=O)N3 [Example 34, (R)-N-(7-oxo-6-(1-phenylethyl)-5,6,7,8-tetrahydro-1H-pyrazolo[4,3-g]quinazolin-3-yl)acetamide]	8.64
COc1n[nH]c2cc3c(cc12)CN([C@H](C)c1ccccc1)C(=O)N3 [Example 35, (R)-3-methoxy-6-(1-phenylethyl)-5,6-dihydro-1H-pyrazolo[4,3-g]quinazolin-7(8H)-one]	6.94
COCCOc1n[nH]c2cc3c(cc12)CN([C@H](C)c1ccccc1)C(=O)N3 [Example 36, (R)-3-(2-methoxyethoxy)-6-(1-phenylethyl)-5,6-dihydro-1H-pyrazolo[4,3-g]quinazolin-7(8H)-one]	8.19
C[C@H](c1ccccc1)N1Cc2cc3c(OCCO)n[nH]c3cc2NC1=O [Example 37, (R)-3-(2-hydroxyethoxy)-6-(1-phenylethyl)-5,6-dihydro-1H-pyrazolo[4,3-g]quinazolin-7(8H)-one]	7.70
C[C@H](c1ccccc1)N1Cc2cc3c(OC4CCOC4)n[nH]c3cc2NC1=O (stereo partly drawn) [Example 38, 6-((R)-1-phenylethyl)-3-((tetrahydrofuran-3-yl)oxy)-5,6-dihydro-1H-pyrazolo[4,3-g]quinazolin-7(8H)-one]	7.68
C[C@H](c1ccccc1)N1Cc2cc3c(OC4CCOCC4)n[nH]c3cc2NC1=O [Example 39, (R)-6-(1-phenylethyl)-3-((tetrahydro-2H-pyran-4-yl)oxy)-5,6-dihydro-1H-pyrazolo[4,3-g]quinazolin-7(8H)-one]	8.00
C[C@H](c1ccccc1)N1Cc2cc3c(C4CC4)n[nH]c3cc2NC1=O [Example 40, (R)-3-cyclopropyl-6-(1-phenylethyl)-5,6-dihydro-1H-pyrazolo[4,3-g]quinazolin-7(8H)-one]	7.62
C[C@H](c1ccccc1)N1Cc2cc3c(-c4ccnc(F)c4)n[nH]c3cc2NC1=O [Example 41, (R)-3-(2-fluoropyridin-4-yl)-6-(1-phenylethyl)-5,6-dihydro-1H-pyrazolo[4,3-g]quinazolin-7(8H)-one]	9.52
C[C@H](c1ccccc1)N1Cc2cc3c(N4CCOCC4)n[nH]c3cc2NC1=O [Example 42, (R)-3-morpholino-6-(1-phenylethyl)-5,6-dihydro-1H-pyrazolo[4,3-g]quinazolin-7(8H)-one]	8.05
C[C@H](c1ccccc1)N1Cc2cc3c(I)n[nH]c3cc2NC1=O [Example 43, (R)-3-iodo-6-(1-phenylethyl)-5,6-dihydro-1H-pyrazolo[4,3-g]quinazolin-7(8H)-one]	7.32
C[C@H](c1ccccc1)N1Cc2cc3c(N4CCc5ncsc5C4)n[nH]c3cc2NC1=O [Example 47, (R)-3-(6,7-dihydrothiazolo[5,4-c]pyridin-5(4H)-yl)-6-(1-phenylethyl)-5,6-dihydro-1H-pyrazolo[4,3-g]quinazolin-7(8H)-one]	7.62
